Assay results as given in patent US20020137929A1, “1 - (3-heterocyclylphenyl) isothiourea, -isourea, -guanidine and -amidine herbicidal agents” (Intellectual Property Department, BASF Aktiengesellschaft, priority 1998, published 2002).

Tests used:
CASOB (Sicklepod) = assay: Postemergence herbicidal evaluation; assay type: in vivo, Cassia obtusifolia; details: postemergence
In short: (§1)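 Visual 0–9 rating versus control (stand, vigor, malformation, size, chlorosis, overall appearance), taken four to five weeks post-spray. Two-week-old seedlings received roughly 0.0156–0.500 kg/ha active in acetone/water (50/50) with 0.5% TWEEN 20 via nozzle at 40 psi.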

[1] = test system: CHEAL (Lambsquarters, Common); assay: Postemergence herbicidal evaluation; assay type: in vivo, Chenopodium album; details: postemergence
In short: as §1

GALAP (Galium) = assay: Postemergence herbicidal evaluation; assay type: in vivo, Galium aparine; details: postemergence
In short: as §1

ORYSAT (Rice, Tebonnet) [2] = assay: Postemergence herbicidal evaluation; assay type: in vivo, Oryza sativa, (L.) Tebonnet; details: postemergence
In short: as §1

ZEAMX (Corn, Field) = assay: Postemergence herbicidal evaluation; assay type: in vivo, Zea mays; details: postemergence
In short: as §1

AMBEL (Ragweed, Common) = assay: Preemergence herbicidal evaluation; assay type: in vivo, Ambrosia artemisifolia; details: rated 4-5 weeks after treatment
In short: (§2)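 Preemergence soil application of compound, sprayed in aqueous acetone at rates equivalent to about 0.0156 to 0.500 kg per hectare onto freshly sown cups. Plant response was judged by eye on a 0-9 scale four to five weeks later.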

SETVI (Foxtail, Green) = assay: Preemergence herbicidal evaluation; assay type: in vivo, Setaria viridis; details: rated 4-5 weeks after treatment
In short: as §2

[3] = test system: GLXMAW (Soybean, Williams); assay: Preemergence herbicidal evaluation; assay type: in vivo, Glycine max, (L.) Merr. cv Williams; details: rated 4-5 weeks after treatment
In short: as §2

ORYSAT (Rice, Tebonnet) [4] = assay: Preemergence herbicidal evaluation; assay type: in vivo, Oryza sativa, (L.) Tebonnet; details: rated 4-5 weeks after treatment
In short: as §2

CYPSE (Flatsedge) [5] = assay: Preemergence weed control under flooded paddy conditions; assay type: in vivo, Cyperus serotinus; details: rated 3-4 weeks after treatment
In short: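 Values are visual 0-9 scores against a control for a preemergence application into paddy flood water at about 0.0313 to 0.500 kg/ha. Greenhouse duration was three to four weeks.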

CYPIR (Rice Flatsedge) = assay: Postemergence weed control under flooded paddy conditions; assay type: in vivo, Cyperus iria; details: postemergence weeds, rated 3 to 4 weeks after treatment
In short: (§3)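 With weeds 3 to 5 cm tall and rice at the 1.5 to 2.5 leaf stage, containers were flooded and water held 1.5 to 3 cm above soil. Compounds in 50/50 v/v aqueous/acetone went into the flood water at about 0.0313 to 0.500 kg/ha a.i. Effects were visually rated 0–9 against controls after three to four weeks in the greenhouse.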

CYPSE (Flatsedge) [6] = assay: as above; assay type: in vivo, Cyperus serotinus; details: postemergence weeds, rated 3 to 4 weeks after treatment
In short: as §3

[7] = test system: SAGPY (Arrowhead (Pygmaea)); assay: as above; assay type: in vivo, Sagittaria pygmaea; details: postemergence weeds, rated 3 to 4 weeks after treatment
In short: as §3

Structure (SMILES): C[C@@H](C(=O)OC(C)(C)C)N1C(=O)CSC1=Nc1cc(-n2c(=O)cc(C(F)(F)F)n(C)c2=O)c(F)cc1Cl [Compound 75, tert-Butyl 2-{{2-chloro-5-[3,6-dihydro-3-methyl-2,6-dioxo-4-(trifluoromethyl)-1(2H)-pyrimidinyl]-4-fluorophenyl}imino}-α-methyl-4-oxo-3-thiazolidineacetate, L-]
- CASOB herbicidal rating (CASOB (Sicklepod); rate 0.0158 kg/ha): 1.0
- CASOB herbicidal rating (CASOB (Sicklepod); rate 0.0315 kg/ha): 1.0
- CASOB herbicidal rating (CASOB (Sicklepod); rate 0.0630 kg/ha): 3.0
- CHEAL herbicidal rating ([1]; rate 0.0158 kg/ha): 7.0
- CHEAL herbicidal rating ([1]; rate 0.0315 kg/ha): 7.0
- CHEAL herbicidal rating ([1]; rate 0.0630 kg/ha): 7.0
- GALAP herbicidal rating (GALAP (Galium); rate 0.0158 kg/ha): 1.0
- GALAP herbicidal rating (GALAP (Galium); rate 0.0315 kg/ha): 2.0
- GALAP herbicidal rating (GALAP (Galium); rate 0.0630 kg/ha): 5.0
- ORYSAT herbicidal rating (ORYSAT (Rice, Tebonnet) [2]; rate 0.0158 kg/ha): 2.0
- ORYSAT herbicidal rating (ORYSAT (Rice, Tebonnet) [2]; rate 0.0315 kg/ha): 2.5
- ORYSAT herbicidal rating (ORYSAT (Rice, Tebonnet) [2]; rate 0.0630 kg/ha): 2.5
- ZEAMX herbicidal rating (ZEAMX (Corn, Field); rate 0.0158 kg/ha): 4.0
- ZEAMX herbicidal rating (ZEAMX (Corn, Field); rate 0.0315 kg/ha): 4.5
- ZEAMX herbicidal rating (ZEAMX (Corn, Field); rate 0.0630 kg/ha): 5.0
- Preemergence herbicidal rating AMBEL (AMBEL (Ragweed, Common); rate 0.0156 kg/ha): 0.0
- Preemergence herbicidal rating AMBEL (AMBEL (Ragweed, Common); rate 0.0313 kg/ha): 0.0
- Preemergence herbicidal rating AMBEL (AMBEL (Ragweed, Common); rate 0.0625 kg/ha): 1.0
- Preemergence herbicidal rating AMBEL (AMBEL (Ragweed, Common); rate 0.1250 kg/ha): 6.0
- Preemergence herbicidal rating AMBEL (AMBEL (Ragweed, Common); rate 0.2500 kg/ha): 7.0
- Preemergence herbicidal rating SETVI (SETVI (Foxtail, Green); rate 0.0156 kg/ha): 0.0
- Preemergence herbicidal rating SETVI (SETVI (Foxtail, Green); rate 0.0313 kg/ha): 0.0
- Preemergence herbicidal rating SETVI (SETVI (Foxtail, Green); rate 0.0625 kg/ha): 0.0
- Preemergence herbicidal rating SETVI (SETVI (Foxtail, Green); rate 0.1250 kg/ha): 9.0
- Preemergence herbicidal rating SETVI (SETVI (Foxtail, Green); rate 0.2500 kg/ha): 9.0
- Preemergence herbicidal rating GLXMAW ([3]; rate 0.0156 kg/ha): 0.0
- Preemergence herbicidal rating GLXMAW ([3]; rate 0.0313 kg/ha): 0.0
- Preemergence herbicidal rating GLXMAW ([3]; rate 0.0625 kg/ha): 0.0
- Preemergence herbicidal rating GLXMAW ([3]; rate 0.1250 kg/ha): 2.0
- Preemergence herbicidal rating GLXMAW ([3]; rate 0.2500 kg/ha): 2.0
- Preemergence herbicidal rating ORYSAT (ORYSAT (Rice, Tebonnet) [4]; rate 0.0156 kg/ha): 0.0
- Preemergence herbicidal rating ORYSAT (ORYSAT (Rice, Tebonnet) [4]; rate 0.0313 kg/ha): 0.0
- Preemergence herbicidal rating ORYSAT (ORYSAT (Rice, Tebonnet) [4]; rate 0.0625 kg/ha): 0.0
- Preemergence herbicidal rating ORYSAT (ORYSAT (Rice, Tebonnet) [4]; rate 0.1250 kg/ha): 1.0
- Preemergence herbicidal rating ORYSAT (ORYSAT (Rice, Tebonnet) [4]; rate 0.2500 kg/ha): 2.0
- CYPSE herbicidal effect rating (CYPSE (Flatsedge) [5]; 0.0313 kg/ha): 2.0
- CYPSE herbicidal effect rating (CYPSE (Flatsedge) [5]; 0.0625 kg/ha): 3.0
- CYPSE herbicidal effect rating (CYPSE (Flatsedge) [5]; 0.1250 kg/ha): 3.0
- CYPSE herbicidal effect rating (CYPSE (Flatsedge) [5]; 0.2500 kg/ha): 3.0
- Herbicidal rating CYPIR (CYPIR (Rice Flatsedge); Rate 0.0313 kg/ha): 0.0
- Herbicidal rating CYPIR (CYPIR (Rice Flatsedge); Rate 0.0625 kg/ha): 0.0
- Herbicidal rating CYPIR (CYPIR (Rice Flatsedge); Rate 0.1250 kg/ha): 6.0
- Herbicidal rating CYPIR (CYPIR (Rice Flatsedge); Rate 0.2500 kg/ha): 6.0
- Herbicidal rating CYPSE (CYPSE (Flatsedge) [6]; Rate 0.0313 kg/ha): 2.0
- Herbicidal rating CYPSE (CYPSE (Flatsedge) [6]; Rate 0.0625 kg/ha): 3.0
- Herbicidal rating CYPSE (CYPSE (Flatsedge) [6]; Rate 0.1250 kg/ha): 3.0
- Herbicidal rating CYPSE (CYPSE (Flatsedge) [6]; Rate 0.2500 kg/ha): 3.0
- Herbicidal rating SAGPY ([7]; Rate 0.0313 kg/ha): 0.0
- Herbicidal rating SAGPY ([7]; Rate 0.0625 kg/ha): 0.0
- Herbicidal rating SAGPY ([7]; Rate 0.1250 kg/ha): 0.0
- Herbicidal rating SAGPY ([7]; Rate 0.2500 kg/ha): 3.0

Structure (SMILES): CCOC(=O)[C@H](Cc1ccccc1)N1C(=O)CSC1=Nc1cc(-n2c(=O)cc(C(F)(F)F)n(C)c2=O)c(F)cc1Cl [Compound 80, Ethyl α-benzyl-2-{{2-chloro-5-[3,6-dihydro-3-methyl-2,6-dioxo-4-(trifluoromethyl)-1(2H)-pyrimidinyl]-4-fluorophenyl}imino}-4-oxo-3-thiazolidineacetate, L-]
- CASOB herbicidal rating (CASOB (Sicklepod); rate 0.0158 kg/ha): 1.0
- CASOB herbicidal rating (CASOB (Sicklepod); rate 0.0315 kg/ha): 5.0
- CASOB herbicidal rating (CASOB (Sicklepod); rate 0.0630 kg/ha): 9.0
- CHEAL herbicidal rating ([1]; rate 0.0158 kg/ha): 9.0
- CHEAL herbicidal rating ([1]; rate 0.0315 kg/ha): 9.0
- CHEAL herbicidal rating ([1]; rate 0.0630 kg/ha): 9.0
- GALAP herbicidal rating (GALAP (Galium); rate 0.0158 kg/ha): 2.0
- GALAP herbicidal rating (GALAP (Galium); rate 0.0315 kg/ha): 4.0
- GALAP herbicidal rating (GALAP (Galium); rate 0.0630 kg/ha): 5.0
- ORYSAT herbicidal rating (ORYSAT (Rice, Tebonnet) [2]; rate 0.0158 kg/ha): 3.5
- ORYSAT herbicidal rating (ORYSAT (Rice, Tebonnet) [2]; rate 0.0315 kg/ha): 3.5
- ORYSAT herbicidal rating (ORYSAT (Rice, Tebonnet) [2]; rate 0.0630 kg/ha): 4.0
- ZEAMX herbicidal rating (ZEAMX (Corn, Field); rate 0.0158 kg/ha): 5.0
- ZEAMX herbicidal rating (ZEAMX (Corn, Field); rate 0.0315 kg/ha): 5.0
- ZEAMX herbicidal rating (ZEAMX (Corn, Field); rate 0.0630 kg/ha): 5.5
- Preemergence herbicidal rating AMBEL (AMBEL (Ragweed, Common); rate 0.0313 kg/ha): 0.0
- Preemergence herbicidal rating AMBEL (AMBEL (Ragweed, Common); rate 0.0625 kg/ha): 2.0
- Preemergence herbicidal rating AMBEL (AMBEL (Ragweed, Common); rate 0.1250 kg/ha): 9.0
- Preemergence herbicidal rating AMBEL (AMBEL (Ragweed, Common); rate 0.2500 kg/ha): 7.0
- Preemergence herbicidal rating SETVI (SETVI (Foxtail, Green); rate 0.0156 kg/ha): 0.0
- Preemergence herbicidal rating SETVI (SETVI (Foxtail, Green); rate 0.0313 kg/ha): 0.0
- Preemergence herbicidal rating SETVI (SETVI (Foxtail, Green); rate 0.0625 kg/ha): 1.0
- Preemergence herbicidal rating SETVI (SETVI (Foxtail, Green); rate 0.1250 kg/ha): 7.0
- Preemergence herbicidal rating SETVI (SETVI (Foxtail, Green); rate 0.2500 kg/ha): 7.0
- Preemergence herbicidal rating GLXMAW ([3]; rate 0.0156 kg/ha): 0.0
- Preemergence herbicidal rating GLXMAW ([3]; rate 0.0313 kg/ha): 0.0
- Preemergence herbicidal rating GLXMAW ([3]; rate 0.0625 kg/ha): 1.0
- Preemergence herbicidal rating GLXMAW ([3]; rate 0.1250 kg/ha): 1.0
- Preemergence herbicidal rating GLXMAW ([3]; rate 0.2500 kg/ha): 1.0
- Preemergence herbicidal rating ORYSAT (ORYSAT (Rice, Tebonnet) [4]; rate 0.0156 kg/ha): 0.0
- Preemergence herbicidal rating ORYSAT (ORYSAT (Rice, Tebonnet) [4]; rate 0.0313 kg/ha): 0.0
- Preemergence herbicidal rating ORYSAT (ORYSAT (Rice, Tebonnet) [4]; rate 0.0625 kg/ha): 0.0
- Preemergence herbicidal rating ORYSAT (ORYSAT (Rice, Tebonnet) [4]; rate 0.1250 kg/ha): 1.0
- Preemergence herbicidal rating ORYSAT (ORYSAT (Rice, Tebonnet) [4]; rate 0.2500 kg/ha): 1.0
- CYPSE herbicidal effect rating (CYPSE (Flatsedge) [5]; 0.0313 kg/ha): 3.0
- CYPSE herbicidal effect rating (CYPSE (Flatsedge) [5]; 0.0625 kg/ha): 3.0
- CYPSE herbicidal effect rating (CYPSE (Flatsedge) [5]; 0.1250 kg/ha): 3.0
- CYPSE herbicidal effect rating (CYPSE (Flatsedge) [5]; 0.2500 kg/ha): 4.0
- Herbicidal rating CYPIR (CYPIR (Rice Flatsedge); Rate 0.0313 kg/ha): 5.0
- Herbicidal rating CYPIR (CYPIR (Rice Flatsedge); Rate 0.0625 kg/ha): 7.0
- Herbicidal rating CYPIR (CYPIR (Rice Flatsedge); Rate 0.1250 kg/ha): 7.0
- Herbicidal rating CYPIR (CYPIR (Rice Flatsedge); Rate 0.2500 kg/ha): 7.0
- Herbicidal rating CYPSE (CYPSE (Flatsedge) [6]; Rate 0.0313 kg/ha): 3.0
- Herbicidal rating CYPSE (CYPSE (Flatsedge) [6]; Rate 0.0625 kg/ha): 3.0
- Herbicidal rating CYPSE (CYPSE (Flatsedge) [6]; Rate 0.1250 kg/ha): 3.0
- Herbicidal rating CYPSE (CYPSE (Flatsedge) [6]; Rate 0.2500 kg/ha): 4.0
- Herbicidal rating SAGPY ([7]; Rate 0.0313 kg/ha): 0.0
- Herbicidal rating SAGPY ([7]; Rate 0.0625 kg/ha): 0.0
- Herbicidal rating SAGPY ([7]; Rate 0.1250 kg/ha): 0.0
- Herbicidal rating SAGPY ([7]; Rate 0.2500 kg/ha): 0.0
